This is an account of results in US20260110682A1, “COMPOSITIONS AND METHODS TARGETING SWIP-10 AND MBLAC1 FOR THE THERAPEUTIC MODULATION OF COPPER DYSHOMEOSTASIS” (Florida Atlantic University Board of Trustees, priority 2022, published 2026).

One assay has as its system DA neurons. The experiment in a line: DA neuron degeneration in worms with GFP-labeled DA neurons (BY250), scored by fluorescence/confocal imaging. The class given is in vivo, C. elegans. The note with it: for rescue of DA neuron degeneration of swip-10: BY250. As for the experimental part:
FIG. 6A: WT transgenic worms with GFP-labeled DA neurons (BY250) were raised on agar plates containing vehicle or 10 μM of the Cu+ specific chelator BCS and imaged by fluorescence microscopy at the late L4 stage to quantify DA neuron degeneration. Data derived from 4 experiments for each condition with statistical evaluation by a one-tailed Student's t-test. […] CuCl2 is known to generate Cu+ upon uptake into cells, thus elevating intracellular Cu+ levels. […] Sustained alterations in mitochondrial function and increased oxidative stress are expected to place neurons at risk for death due to their high metabolic rate. […] Assays were performed blind to genotype and treatment, and degeneration assessed by scoring the frequency of dendritic breaks, shrunken soma and missing neurons as described by Gibson et al, 2018. Extending work examining degeneration in BY250: swip-10 vs BY250, a potential Cu-sensitive regulation of swip-10 degeneration was assessed using growth of BY250 animals on the Cu+ specific chelator, BCS, to promote degeneration, and incubation of BY250: swip-10 on CuCl2 and elesclomol to prevent swip-10 degeneration.

The subject of the next assay is chca-1. Kind of assay: qPCR of chca-1 RNA levels in worms. It counts as in vivo, C. elegans. The settings on record: N2 worms treated with BCS; similar extent as in swip-10 animals. On the technique in general: Real-time PCR tracks product formation cycle by cycle.
In assay [1] the test system is mitochondrial respiration. The note with it: swip-10 KO worms treated with FCCP.
Source text: Data here are presented as mean oxygen consumption (pmol/second) of 100 worms. ** represents statistical significance (P<0.01) compared to the N2 strain by a two-tailed (unpaired) t-test.
The next assay concerns the target T1, MBLAC1 (Homo sapiens, UniProt A4D2B0).
T1 sequence (A4D2B0 1-266): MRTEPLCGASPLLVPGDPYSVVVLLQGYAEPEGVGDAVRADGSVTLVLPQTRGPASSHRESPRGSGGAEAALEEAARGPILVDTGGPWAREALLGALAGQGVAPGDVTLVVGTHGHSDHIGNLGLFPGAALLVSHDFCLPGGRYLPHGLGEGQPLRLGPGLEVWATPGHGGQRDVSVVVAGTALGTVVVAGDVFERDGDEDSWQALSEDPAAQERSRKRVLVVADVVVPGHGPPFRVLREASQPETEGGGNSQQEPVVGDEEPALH
The settings on record: cited from earlier work.

For assay [2], the system named is animal models of AD and other neurodegenerative disorders. The note with it: stroke, oxygen glucose deprivation induced neurodegeneration, motor neuron degeneration; cited from earlier work.
Assay [3] deals with GLT1 type glutamate transporter. The settings on record: rodents treated with ceftriaxone; cited from earlier work.
Another assay has as its system Menkes disease. The note with it: boosting Cu levels; cited from earlier work.

Molecules are shown by their SMILES.

Consider `Cc1cc(-c2ccc(S(=O)(=O)O)cc2)c2ccc3c(-c4ccc(S(=O)(=O)O)cc4)cc(C)nc3c2n1` [BCS, bathocuproinedisulfonic acid], for which the DA neuron degeneration result with DA neurons (WT (BY250) worms raised on agar plates containing 10 μM BCS, imaged at late L4 stage) is on record as “DA neuron degeneration generated”. In addition, in the assay on chca-1, the “chca-1 RNA levels” value was “elevated”.

In the case of `[Cl][Cu][Cl]` [CuCl2], the “rescue of DA neuron degeneration of swip-10” value in the assay with DA neurons (swip-10 animals incubated with CuCl2 (10 μM)) is “rescued”.

`N#CC(C#N)=NNc1ccc(OC(F)(F)F)cc1` [FCCP]: in assay [1], the oxygen consumption entry is reported as “restores oxygen consumption”.

Turning to `CO/N=C(\C(=O)N[C@@H]1C(=O)N2C(C(=O)O)=C(CSc3nc(=O)c(=O)[nH]n3C)CS[C@H]12)c1csc(N)n1` [ceftriaxone], the “binding to MBLAC1” value on MBLAC1 was “binds MBLAC1”. In addition, in assay [2], the neuroprotection entry is recorded as “demonstrates neuroprotection”. Further, in assay [3], the “GLT1 type glutamate transporter level” value is “triggers an elevation”.

Consider `CN(NC(=O)CC(=O)NN(C)C(=S)c1ccccc1)C(=S)c1ccccc1` [elesclomol], for which the “rescue of DA neuron degeneration of swip-10” value in the assay with DA neurons (swip-10 animals incubated with elesclomol (5 μM)) is “rescued”. Also, the “pathology associated with Menkes disease” value in the assay on Menkes disease is “reduce pathology”.
